# Test results: the kinase profiling compilation of Christmann-Franck et al. (2016)
# Where “and” joins values, the source holds several entries; their conditions need not be identical. Identical values can stand only once.
# Tests used:
# Test in all cases: radiometric filter-binding kinase assay, Kinase HotSpot
# Settings in all cases: compound 0.5 µM; ATP 10 µM
# [1] = target: EPHB2 (human) (UniProt P29323)
# [2] = target: DYRK2 (human) (UniProt Q92630)
# [3] = target: MAP3K3 (human) (UniProt Q99759)
# [4] = target: BMX (human) (UniProt P51813)
# BMX (human), sequence (P51813 whole entry, looked up): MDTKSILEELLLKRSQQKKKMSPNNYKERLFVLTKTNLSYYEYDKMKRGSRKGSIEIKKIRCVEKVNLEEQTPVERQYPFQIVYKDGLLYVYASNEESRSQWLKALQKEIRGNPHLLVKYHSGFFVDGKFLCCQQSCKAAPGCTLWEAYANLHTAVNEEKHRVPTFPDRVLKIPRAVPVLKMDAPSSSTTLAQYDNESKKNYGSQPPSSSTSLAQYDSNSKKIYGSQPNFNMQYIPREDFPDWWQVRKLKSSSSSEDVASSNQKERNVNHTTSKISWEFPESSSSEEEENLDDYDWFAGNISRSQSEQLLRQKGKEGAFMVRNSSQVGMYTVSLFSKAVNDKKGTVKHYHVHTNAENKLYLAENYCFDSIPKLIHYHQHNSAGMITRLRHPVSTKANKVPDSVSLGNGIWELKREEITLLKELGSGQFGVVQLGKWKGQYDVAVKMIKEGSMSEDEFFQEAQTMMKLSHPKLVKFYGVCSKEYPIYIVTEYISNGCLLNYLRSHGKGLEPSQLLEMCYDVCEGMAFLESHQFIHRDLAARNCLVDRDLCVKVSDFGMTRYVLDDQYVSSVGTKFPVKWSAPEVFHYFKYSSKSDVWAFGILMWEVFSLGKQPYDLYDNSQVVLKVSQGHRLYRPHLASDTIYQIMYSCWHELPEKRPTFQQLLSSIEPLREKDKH
# [5] = target: NEK2 (human) (UniProt P51955)
# [6] = target: PRKCI (human) (UniProt P41743)
# PRKCI (human), sequence (P41743 whole entry, looked up): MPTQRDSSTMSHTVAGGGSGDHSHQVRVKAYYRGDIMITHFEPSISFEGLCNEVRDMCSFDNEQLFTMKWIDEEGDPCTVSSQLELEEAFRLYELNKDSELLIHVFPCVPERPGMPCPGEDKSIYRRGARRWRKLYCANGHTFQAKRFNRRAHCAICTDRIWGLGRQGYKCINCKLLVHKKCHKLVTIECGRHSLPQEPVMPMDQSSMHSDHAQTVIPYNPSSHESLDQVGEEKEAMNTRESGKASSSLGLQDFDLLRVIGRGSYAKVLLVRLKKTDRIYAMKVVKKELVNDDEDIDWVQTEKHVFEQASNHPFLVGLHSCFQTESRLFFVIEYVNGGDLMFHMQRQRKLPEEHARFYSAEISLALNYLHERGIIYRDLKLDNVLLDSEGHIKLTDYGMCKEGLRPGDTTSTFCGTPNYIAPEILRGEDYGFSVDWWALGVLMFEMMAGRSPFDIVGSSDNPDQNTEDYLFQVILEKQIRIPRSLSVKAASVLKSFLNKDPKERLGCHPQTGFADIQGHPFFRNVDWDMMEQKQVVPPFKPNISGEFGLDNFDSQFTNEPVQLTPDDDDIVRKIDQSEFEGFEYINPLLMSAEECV
# [7] = target: JAK1 JH1 catalytic (human) (UniProt P23458)
# JAK1 JH1 catalytic (human), sequence (P23458 whole entry, looked up): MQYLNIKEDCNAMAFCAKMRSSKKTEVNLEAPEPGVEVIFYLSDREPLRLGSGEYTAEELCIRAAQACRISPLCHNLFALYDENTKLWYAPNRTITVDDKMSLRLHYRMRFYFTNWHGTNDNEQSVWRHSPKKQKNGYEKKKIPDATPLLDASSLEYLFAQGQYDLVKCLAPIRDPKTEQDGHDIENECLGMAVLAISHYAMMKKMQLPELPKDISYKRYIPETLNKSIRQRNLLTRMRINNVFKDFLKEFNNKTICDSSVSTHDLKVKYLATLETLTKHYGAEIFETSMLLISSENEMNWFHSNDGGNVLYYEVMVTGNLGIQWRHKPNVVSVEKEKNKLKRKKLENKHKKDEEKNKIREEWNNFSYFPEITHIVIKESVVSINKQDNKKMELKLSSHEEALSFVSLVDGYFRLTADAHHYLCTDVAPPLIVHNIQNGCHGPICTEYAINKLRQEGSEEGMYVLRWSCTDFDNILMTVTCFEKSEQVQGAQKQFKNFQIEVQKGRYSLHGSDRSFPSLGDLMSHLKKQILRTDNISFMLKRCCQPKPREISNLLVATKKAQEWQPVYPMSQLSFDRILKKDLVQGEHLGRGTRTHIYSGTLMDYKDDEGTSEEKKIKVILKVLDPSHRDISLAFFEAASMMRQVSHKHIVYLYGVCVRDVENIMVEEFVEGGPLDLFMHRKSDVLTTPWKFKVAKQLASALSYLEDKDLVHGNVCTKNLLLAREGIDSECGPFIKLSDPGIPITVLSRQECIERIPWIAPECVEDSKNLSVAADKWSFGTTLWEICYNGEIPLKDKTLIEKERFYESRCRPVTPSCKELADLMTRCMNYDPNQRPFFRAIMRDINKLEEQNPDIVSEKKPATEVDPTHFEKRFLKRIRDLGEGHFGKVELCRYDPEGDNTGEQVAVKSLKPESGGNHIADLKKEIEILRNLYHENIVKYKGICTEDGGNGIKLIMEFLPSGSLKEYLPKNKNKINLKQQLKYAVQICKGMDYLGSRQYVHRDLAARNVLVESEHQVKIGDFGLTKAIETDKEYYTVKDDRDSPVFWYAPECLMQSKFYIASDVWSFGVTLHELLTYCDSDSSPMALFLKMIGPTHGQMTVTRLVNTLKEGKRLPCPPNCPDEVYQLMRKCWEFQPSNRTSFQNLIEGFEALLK
# [8] = target: MARK4 (human) (UniProt Q96L34)
# [9] = target: AXL (human) (UniProt P30530)
# [10] = target: PRKG2 (human) (UniProt Q13237)
# PRKG2 (human), sequence (Q13237 whole entry, looked up): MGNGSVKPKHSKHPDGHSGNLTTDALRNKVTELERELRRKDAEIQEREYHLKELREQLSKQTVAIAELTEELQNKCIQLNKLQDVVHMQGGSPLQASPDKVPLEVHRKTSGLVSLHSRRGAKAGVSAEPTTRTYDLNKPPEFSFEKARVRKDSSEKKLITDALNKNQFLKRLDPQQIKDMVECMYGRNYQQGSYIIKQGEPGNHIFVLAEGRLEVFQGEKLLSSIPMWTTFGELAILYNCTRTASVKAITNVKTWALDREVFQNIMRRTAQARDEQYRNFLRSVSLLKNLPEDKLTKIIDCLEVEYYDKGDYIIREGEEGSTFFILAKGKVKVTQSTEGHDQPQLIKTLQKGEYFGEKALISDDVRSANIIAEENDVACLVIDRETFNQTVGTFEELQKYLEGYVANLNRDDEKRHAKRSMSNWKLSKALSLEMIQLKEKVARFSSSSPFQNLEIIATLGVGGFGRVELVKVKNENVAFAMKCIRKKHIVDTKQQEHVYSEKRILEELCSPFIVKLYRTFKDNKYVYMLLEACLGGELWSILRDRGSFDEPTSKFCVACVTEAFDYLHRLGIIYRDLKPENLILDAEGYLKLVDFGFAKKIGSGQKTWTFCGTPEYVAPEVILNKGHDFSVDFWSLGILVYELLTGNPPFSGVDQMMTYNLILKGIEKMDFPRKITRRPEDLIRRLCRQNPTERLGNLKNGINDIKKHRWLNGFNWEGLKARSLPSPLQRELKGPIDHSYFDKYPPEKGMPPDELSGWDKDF
# [11] = target: PRKX (human) (UniProt P51817)
# [12] = target: PRKCE (human) (UniProt Q02156)
# PRKCE (human), sequence (Q02156 whole entry, looked up): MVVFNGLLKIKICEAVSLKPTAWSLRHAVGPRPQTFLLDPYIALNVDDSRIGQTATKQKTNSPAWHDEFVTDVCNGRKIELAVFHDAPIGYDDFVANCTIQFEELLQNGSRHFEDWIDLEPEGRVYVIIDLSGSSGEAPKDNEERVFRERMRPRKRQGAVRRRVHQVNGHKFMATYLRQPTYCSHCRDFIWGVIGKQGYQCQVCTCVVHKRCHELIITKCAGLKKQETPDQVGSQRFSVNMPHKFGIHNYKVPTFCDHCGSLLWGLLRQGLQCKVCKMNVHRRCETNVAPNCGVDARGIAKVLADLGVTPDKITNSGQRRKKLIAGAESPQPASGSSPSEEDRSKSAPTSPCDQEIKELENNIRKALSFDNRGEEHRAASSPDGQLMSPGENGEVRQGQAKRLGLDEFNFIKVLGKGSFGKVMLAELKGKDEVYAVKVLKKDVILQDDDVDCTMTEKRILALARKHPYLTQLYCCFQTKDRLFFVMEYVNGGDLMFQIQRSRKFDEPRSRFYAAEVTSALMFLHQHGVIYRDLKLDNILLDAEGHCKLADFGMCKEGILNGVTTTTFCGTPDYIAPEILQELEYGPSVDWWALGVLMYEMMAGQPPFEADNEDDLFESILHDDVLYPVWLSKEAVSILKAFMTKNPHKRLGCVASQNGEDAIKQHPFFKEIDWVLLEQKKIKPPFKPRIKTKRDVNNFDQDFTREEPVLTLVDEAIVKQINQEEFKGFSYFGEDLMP
# [13] = target: TEK (human) (UniProt Q02763)
# [14] = target: IGF1R (human) (UniProt P08069)
# [15] = target: PRKG1 (human) (UniProt Q13976)
# [16] = target: CHEK2 (human) (UniProt O96017)
# [17] = target: MST1R (human) (UniProt Q04912)
# [18] = target: MAP4K2 (human) (UniProt Q12851)
# [19] = target: EPHB4 (human) (UniProt P54760)
# [20] = target: CHUK (human) (UniProt O15111)
# [21] = target: CLK1 (human) (UniProt P49759)
# [22] = target: DYRK1A (human) (UniProt Q13627)
# [23] = target: TEC (human) (UniProt P42680)
# [24] = target: ULK2 (human) (UniProt Q8IYT8)
# [25] = target: PAK1 (human) (UniProt Q13153)
# [26] = target: OXSR1 (human) (UniProt O95747)
# OXSR1 (human), sequence (O95747 whole entry, looked up): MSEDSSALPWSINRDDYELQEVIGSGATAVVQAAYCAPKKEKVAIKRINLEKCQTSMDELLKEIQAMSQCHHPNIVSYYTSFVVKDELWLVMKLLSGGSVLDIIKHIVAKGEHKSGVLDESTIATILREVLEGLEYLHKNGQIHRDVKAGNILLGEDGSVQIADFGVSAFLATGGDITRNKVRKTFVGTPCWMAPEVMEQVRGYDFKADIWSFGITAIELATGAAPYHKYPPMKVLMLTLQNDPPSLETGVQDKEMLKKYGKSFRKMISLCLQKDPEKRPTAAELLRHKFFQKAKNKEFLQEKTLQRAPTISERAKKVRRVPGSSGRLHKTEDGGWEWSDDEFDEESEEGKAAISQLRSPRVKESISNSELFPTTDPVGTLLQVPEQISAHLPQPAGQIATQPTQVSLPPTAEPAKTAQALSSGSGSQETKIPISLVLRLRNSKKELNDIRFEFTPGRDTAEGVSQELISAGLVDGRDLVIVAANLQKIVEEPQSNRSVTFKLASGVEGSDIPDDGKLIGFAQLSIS
# [27] = target: CSNK1D (human) (UniProt P48730)
# [28] = target: GSG2 (human) (UniProt Q8TF76)
# [29] = target: ABL2 (human) (UniProt P42684)
# [30] = target: CDK4 CCND1 (human) (UniProt P24385+P11802)
# [31] = target: CSF1R (human) (UniProt P07333)
# [32] = target: CAMKK2 (human) (UniProt Q96RR4)
# [33] = target: MAPK11 (human) (UniProt Q15759)
# [34] = target: PBK (human) (UniProt Q96KB5)
# [35] = target: JAK2 JH1 JH2 (human) (UniProt O60674)
# DYRK2 (human), sequence (Q92630 whole entry, looked up): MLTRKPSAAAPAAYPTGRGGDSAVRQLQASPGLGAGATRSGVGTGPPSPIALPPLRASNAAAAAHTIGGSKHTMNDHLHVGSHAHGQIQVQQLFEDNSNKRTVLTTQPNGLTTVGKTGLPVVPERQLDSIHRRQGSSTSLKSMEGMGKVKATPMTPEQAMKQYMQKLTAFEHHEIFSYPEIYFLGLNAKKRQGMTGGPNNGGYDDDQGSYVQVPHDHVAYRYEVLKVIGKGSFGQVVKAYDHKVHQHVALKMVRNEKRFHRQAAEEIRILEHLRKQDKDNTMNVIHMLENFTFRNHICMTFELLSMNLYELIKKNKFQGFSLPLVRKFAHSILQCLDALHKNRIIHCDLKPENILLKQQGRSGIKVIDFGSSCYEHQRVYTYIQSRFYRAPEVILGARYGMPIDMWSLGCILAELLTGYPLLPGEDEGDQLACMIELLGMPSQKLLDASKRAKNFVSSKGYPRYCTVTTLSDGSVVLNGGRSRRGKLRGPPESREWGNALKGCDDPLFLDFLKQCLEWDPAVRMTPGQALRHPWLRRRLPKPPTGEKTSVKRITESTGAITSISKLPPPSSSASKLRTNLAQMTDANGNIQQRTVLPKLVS
Structure (SMILES),residual activity [1],residual activity [2],residual activity [3],residual activity [4],residual activity [5],residual activity [6],residual activity [7],residual activity [8],residual activity [9],residual activity [10],residual activity [11],residual activity [12],residual activity [13],residual activity [14],residual activity [16],residual activity [17],residual activity [18],residual activity [19],residual activity [21],residual activity [22],other results
O=C(O)/C=C/c1cc(Br)c(Br)c(Br)c1Br,103%,79.4%,105%,97%,92%,97.3%,98.8%,93.1%,90.9%,80.3%,96%,88.6%,94.4%,96%,77.5%,87.1%,89.3%,81.2%,98.5%,74.8%,residual activity [15]: 78.9% and 89%; residual activity [20]: 89.5%; residual activity [23]: 107%; residual activity [24]: 80.3%; residual activity [25]: 105%; residual activity [26]: 93.5%; residual activity [27]: 59.1%; residual activity [28]: 88.4%; residual activity [29]: 88.7%; residual activity [30]: 89.3%; residual activity [31]: 99%; residual activity [32]: 79.6%; residual activity [33]: 92.7%; residual activity [34]: 96.2%; residual activity [35]: 101%
CC(=O)O/N=C1\C(=C2\C(=O)Nc3cc(Br)ccc32)Nc2ccccc21,81.4%,94.4%,97.4%,67.2%,73.9%,74.3%,104%,77.6%,88%,91.4%,99.9%,86.2%,106%,106%,75.8%,92.8%,44%,92.2%,83.3%,111%,residual activity [15]: 82.7% and 86.1%; residual activity [20]: 98.3%; residual activity [23]: 131%; residual activity [24]: 92.2%; residual activity [25]: 93.6%; residual activity [26]: 112%; residual activity [27]: 92.3%; residual activity [28]: 85.5%; residual activity [29]: 26.4%; residual activity [30]: 73.3%; residual activity [31]: 84%; residual activity [32]: 102%; residual activity [33]: 83.4%; residual activity [34]: 76.8%; residual activity [35]: 105%
CC(C)c1nn(-c2c(Cl)cccc2Cl)c2nc(Cc3ccc(OCCO)cc3)nc(O)c12,92.5%,100%,110%,104%,97.7%,95.2%,101%,99.5%,98%,61.6%,96.3%,90.5%,100%,24.8%,98.8%,97.5%,106%,90.7%,94.7%,105%,residual activity [15]: 92.3% and 99%; residual activity [20]: 98.5%; residual activity [23]: 105%; residual activity [24]: 86.6%; residual activity [25]: 89.7%; residual activity [26]: 93.8%; residual activity [27]: 97.1%; residual activity [28]: 94.3%; residual activity [29]: 96.3%; residual activity [30]: 86.8%; residual activity [31]: 94.6%; residual activity [32]: 90.9%; residual activity [33]: 81.8%; residual activity [34]: 101%; residual activity [35]: 98.3%
O=C1NC(=O)C(c2cn(CCCO)c3ncccc23)=C1c1cnccn1,78.3%,81.7%,88.3%,97.8%,97.5%,87%,117%,93.9%,104%,118%,106%,102%,103%,98.4%,97.7%,96.1%,67.4%,95.2%,88.5%,108%,residual activity [23]: 120%; residual activity [24]: 96.7%; residual activity [25]: 101%; residual activity [26]: 101%; residual activity [27]: 99.4%; residual activity [28]: 91.9%; residual activity [29]: 83.7%; residual activity [30]: 89.5%; residual activity [31]: 98.4%; residual activity [32]: 115%; residual activity [33]: 105%; residual activity [34]: 94.9%; residual activity [35]: 97.8%
Cc1nc2cc3nc(-c4cccs4)cnc3cc2n1C,101%,104%,117%,117%,97%,99.1%,105%,105%,109%,87.7%,106%,108%,96.6%,96.4%,94.6%,107%,110%,92.1%,111%,99.9%,residual activity [15]: 98.5% and 99.7%; residual activity [20]: 96.2%; residual activity [23]: 158%; residual activity [24]: 105%; residual activity [25]: 86.6%; residual activity [26]: 99.4%; residual activity [27]: 95.9%; residual activity [28]: 108%; residual activity [29]: 100%; residual activity [30]: 108%; residual activity [31]: 63.5%; residual activity [32]: 112%; residual activity [33]: 101%; residual activity [34]: 98.9%; residual activity [35]: 106%
O=C1Nc2ccccc2/C1=C1/Nc2ccccc2/C1=N\OCCC(O)CO (stereo not drawn),75%,61.4%,87.8%,40.2%,114%,100%,25.9%,43.5%,42.7%,28.1%,84.2%,92.2%,101%,39.1%,27%,101%,51.7%,72.2%,36.6%,82.8%,residual activity [15]: 45.1% and 53%; residual activity [20]: 96.6%; residual activity [23]: 101%; residual activity [24]: 102%; residual activity [25]: 71.3%; residual activity [26]: 98.6%; residual activity [27]: 52.9%; residual activity [28]: 32.8%; residual activity [29]: 38.5%; residual activity [30]: 96.4%; residual activity [31]: 21.1%; residual activity [32]: 26%; residual activity [33]: 95.2%; residual activity [34]: 80.6%; residual activity [35]: 43.1%
